Legend:
[1] = system: freigesetzten Exoenzyme von Candida albicans; test: In vitro enzyme test: inhibition of released exoenzymes of Candida albicans blastoconidia on egg-yolk agar plate; format: cell-based; conditions: Stamm 200/175
From the text: Als Beispiel für die Hemmung der pathogenen Phase dimorpher Hefezellen werden Ergebnisse eines in-vitro-Enzymtests angeführt, in welchen die prozentuale Hemmung freigesetzter Exoenzyme, insbesondere freigesetzter Lysophospholipase (Phospholipase B), als Maß für die Wirksamkeit bestimmt wird.
Zur Feststellung der Enzymhemmung wurde eine Suspension von Candida albicans Blastokonidien (Stamm 200/175), wobei die Keimdichte photometrisch auf eine Extinktion von 0,5 (500 nm) eingestellt war, mit Präparatelösung bzw. zur Kontrolle mit Lösungsmittellösung vermischt und zwar • a) 100 µl Präparatelösung (Suspension) + 900 µl Keimsuspension • b) 100 µl Lösungsmittel + 900 µl Keimsuspension
Jeweils 5 µl der 30 min bei 21°C inkubierten Blastokonidiensuspension wurden auf eine Agarplatte (Sabourand Agar mit Zusatz von 8 % Eigelb, 1 M NaCl, 5 mM CaCl₂) aufgetropft.
Die so beimpfte Platte wurde 3 Tage bei 37°C bebrütet.
Die Auswertung erfolgte derart, daß • 1. der Durchmesser (mm) der Candida albicans-Kolonie (behandelt und unbehandelt) sowie • 2. der Gesamtdurchmesser von Kolonie und Trübungshof, welcher durch Exoenzyme verursacht wurde (behandelt und unbehandelt) bestimmt wurde.
Aus der Bestimmung des Quotienten von Präparate- und Kontrollgruppe ergab sich ein Wert, der als Maß für die Enzymaktivität anzusehen war.

[2] = system: Trichophyton mentagrophytes; test: Local in vivo efficacy, dermal treatment of guinea pigs infected with Trichophyton mentagrophytes; conditions: Dermal 5 x 0,1 %; for Mykosen (Durchmesser in mm) Mittelwert (Standardabweich.): Meerschweinchen (Pirbright white), from day 3 after infection, n = 6; for Reduktion in %: Meerschweinchen, relative to Bifonazol = 100,0
From the text: Als Beispiel für die hohe lokale in vivo Wirksamkeit der erfindungsgemäßen Verbindungen werden Behandlungsergebnisse an Experimenten mit Trichophyton mentagrophytes infizierten Labortieren angeführt.
Zur Feststellung der lokalen Wirksamkeit wurde jeweils ein 450 - 500 g schweres Meerschweinchen (Stamm Pirbright white) mit 1,5 x 10⁴ Konidien/Tier in die Epidermis verteilt auf 6 Infektionspunkte, infiziert.
Die Behandlung der Tiere erfolgte dermal ab dem 3. Tag nach der Infektion an 5 aufeinander folgenden Tagen durch Aufbringen einer 0,1 %igen Präparatlösung auf 6 Infektionsstellen der Rückenseite.
Neben den mit den erfindungsgemäßen Substanzen behandelten Tieren wurde ein Tier mit der Referenzsubstanz Bifonazol behandelt, ein Tier blieb nach der Infektion unbehandelt.

[3] = system: Phospholipase aus Leberzellen; conditions: literature, Biochem. Pharmacol. 34, 521-24, 1985; cited from earlier work
[4] = Präparat-Konzentration 10 µg/ml
[5] = Präparat-Konzentration 50 µg/ml
[6] = Präparat-Konzentration 100 µg/ml

SMILES	Prozentuale Hemmung der freigesetzten Exoenzyme von Candida albicans in vitro [1, 4]	Prozentuale Hemmung der freigesetzten Exoenzyme von Candida albicans in vitro [1, 5]	Prozentuale Hemmung der freigesetzten Exoenzyme von Candida albicans in vitro [1, 6]	Mykosen (Durchmesser in mm) Mittelwert (Standardabweich.) [2]	Reduktion in % [2]	Hemmwirkung gegenüber Phospholipase aus Leberzellen [3]
CC(C)=CCC/C(C)=C\COC(Cn1ccnc1)c1ccc(Cl)cc1Cl (racemic) [Beispiel 2, (R,S)-1-(2,4-Dichlorphenyl)-1-(cis-3,7-dimethyl-2,6-octadien-1-oxy)-2-(imidazol-1-yl)-ethan]	41,2%	100%	100%	3,3 (0,5) mm	139,3%	
CC(C)=CCC/C(C)=C\COC(Cn1cncn1)c1ccc(Cl)cc1Cl (racemic) [Beispiel 5]				2,6 (1,5) mm	176,9%	
CC(C)=CCC/C(C)=C\COC(CCn1ccnc1)c1cccs1 (racemic) [Beispiel 40]				2,8 (1,7) mm	164,2%	
CC(C)=CCC/C(C)=C\COC(Cn1cncn1)c1ccc(Cl)s1 (racemic) [Beispiel 42]	50,0%	100%	100%			
CC(C)=CCC/C(C)=C\COC(Cn1ccnc1)c1ccccn1 (racemic) [Beispiel 46]				2,8 (1,6) mm	164,2%	
CC(C)=CCC/C(C)=C\COC(Cn1ccnc1)c1ccco1 (racemic) [Beispiel 47]				3,6 (0,8) mm	127,7%	
c1ccc(-c2ccc(C(c3ccccc3)n3ccnc3)cc2)cc1 (stereo not shown) [Bifonazol, reference compound]				4,6 (1,5) mm	100,0%	
CC(C)NCC(O)COc1cccc2ccccc12 (stereo not shown) [Propranolol, reference compound]	0%	10%	30%			Hemmwirkung zeigte

Reference: patent EP0430194A2, “Aryl-alkyl-azoles substituted with many times unsaturated groups, process for their preparation and their use” (HOECHST AKTIENGESELLSCHAFT, priority 1989, dated 1991)
